Measurements: patent US20150105252A1, “SUBSTITUTED PYRAZOLES AS HERBICIDES” (E I DU PONT DE NEMOURS AND COMPANY, priority 2013, published 2015)

Legend:
blackgrass = test: Test D postemergence; assay type: in vivo, Alopecurus myosuroides; settings: scale 0 to 100
Source text: (§1) Seeds of plant species selected from bluegrass (annual bluegrass, Poa annua), blackgrass (Alopecurus myosuroides), canarygrass (littleseed canarygrass, Phalaris minor), chickweed (common chickweed, Stellaria media), galium (catchweed bedstraw, Galium aparine), bromegrass, downy (downy bromegrass, Bromus tectorum), field poppy (Papaver rhoeas), field violet (Viola arvensis), foxtail, green (green foxtail, Setaria viridis), deadnettle (henbit deadnettle, Lamium amplexicaule), ryegrass, Italian (Italian ryegrass, Lolium multiflorum), kochia (Kochia scoparia), lambsquarters (Chenopodium album), oilseed rape (Brassica napus), pigweed (redroot pigweed, Amaranthus retroflexus), chamomile (scentless chamomile, Matricaria inodora), speedwell (bird's-eye speedwell, Veronica persica), barley, spring (spring barley, Hordeum vulgare), wheat, spring (spring wheat, Triticum aestivum), buckwheat, wild (wild buckwheat, Polygonum convolvulus), mustard, wild (wild mustard, Sinapis arvensis), oat, wild (wild oat, Avena fatua), radish, wild (wild radish, Raphanus raphanistrum), windgrass (Apera spica-venti), Russian thistle (Salsola kali), barley, winter (winter barley, Hordeum vulgare), and wheat, winter (winter wheat, Triticum aestivum) were planted into a silt loam soil and treated preemergence with test chemicals formulated in a non-phytotoxic solvent mixture which included a surfactant.
(§2) At the same time, these species were planted in pots containing Redi-Earth® planting medium (Scotts Company, 14111 Scottslawn Road, Marysville, Ohio 43041) comprising spaghnum peat moss, vermiculite, wetting agent and starter nutrients and treated with postemergence applications of the test chemicals formulated in the same manner. Plants ranged in height from 2 to 18 cm (1- to 4-leaf stage). Treated plants and controls were maintained in a controlled growth environment for 14 to 21 days after which time all species were compared to controls and visually evaluated. Plant response ratings, summarized in Table D, are based on a scale of 0 to 100 where 0 is no effect and 100 is complete control. A dash (-) response means no test result.

oilseed rape = test: Test D postemergence; assay type: in vivo, Brassica napus; settings: scale 0 to 100
Source text: as §1, §2

speedwell = test: Test D preemergence; assay type: in vivo, Veronica persica; settings: Preemergence, scale 0 to 100
Source text: as §1, §2

bluegrass = test: Test D postemergence; assay type: in vivo, Poa annua; settings: scale 0 to 100
Source text: as §1, §2

field violet = test: Test D preemergence; assay type: in vivo, Viola arvensis; settings: Preemergence, scale 0 to 100
Source text: as §1, §2

ryegrass, Italian [1] = test: Test D postemergence; assay type: in vivo, Lolium multiflorum; settings: scale 0 to 100
Source text: as §1, §2

oat, wild = test: Test D postemergence; assay type: in vivo, Avena fatua; settings: scale 0 to 100
Source text: as §1, §2

ryegrass, Italian [2] = test: Test D preemergence; assay type: in vivo, Lolium multiflorum; settings: Preemergence, scale 0 to 100
Source text: as §1, §2

barley, winter = test: Test D preemergence; assay type: in vivo, Hordeum vulgare; settings: Preemergence, scale 0 to 100
Source text: as §1, §2

barley, spring = test: Test D preemergence; assay type: in vivo, Hordeum vulgare; settings: Preemergence, scale 0 to 100
Source text: as §1, §2

field poppy = test: Test D preemergence; assay type: in vivo, Papaver rhoeas; settings: Preemergence, scale 0 to 100
Source text: as §1, §2

pigweed = test: Test D preemergence; assay type: in vivo, Amaranthus retroflexus; settings: Preemergence, scale 0 to 100
Source text: as §1, §2

wheat, spring = test: Test D postemergence; assay type: in vivo, Triticum aestivum; settings: scale 0 to 100
Source text: as §1, §2

wheat, winter = test: Test D postemergence; assay type: in vivo, Triticum aestivum; settings: scale 0 to 100
Source text: as §1, §2

canarygrass = test: Test D preemergence; assay type: in vivo, Phalaris minor; settings: Preemergence, scale 0 to 100
Source text: as §1, §2

lambsquarters = test: Test D preemergence; assay type: in vivo, Chenopodium album; settings: Preemergence, scale 0 to 100
Source text: as §1, §2

chickweed = test: Test D postemergence; assay type: in vivo, Stellaria media; settings: scale 0 to 100
Source text: as §1, §2

kochia = test: Test D postemergence; assay type: in vivo, Kochia scoparia; settings: scale 0 to 100
Source text: as §1, §2

radish, wild = test: Test D preemergence; assay type: in vivo, Raphanus raphanistrum; settings: Preemergence, scale 0 to 100
Source text: as §1, §2

bromegrass, downy = test: Test D preemergence; assay type: in vivo, Bromus tectorum; settings: Preemergence, scale 0 to 100
Source text: as §1, §2

CCc1cc(C(=O)NCC(F)(F)F)nn1Cc1ccnc(SC(F)(F)F)c1 [Compound 214]
Blackgrass plant response rating (blackgrass; Postemergence, 31 g ai/ha): 15 | Blackgrass plant response rating (blackgrass; Postemergence, 125 g ai/ha): 20 | Blackgrass plant response rating (blackgrass; Postemergence, 250 g ai/ha): 70 | Blackgrass plant response rating (blackgrass; postemergence, 62 g ai/ha): 15 | Oilseed Rape plant response rating (oilseed rape; Postemergence, 31 g ai/ha): 65 | Oilseed Rape plant response rating (oilseed rape; Postemergence, 125 g ai/ha): 75 | Oilseed Rape plant response rating (oilseed rape; Postemergence, 250 g ai/ha): 100 | Oilseed Rape plant response rating (oilseed rape; postemergence, 62 g ai/ha): 65 | Plant response rating, Speedwell (speedwell; 62 g ai/ha): 100 | Plant response rating, Speedwell (speedwell; 125 g ai/ha): 100 | Plant response rating, Speedwell (speedwell; 250 g ai/ha): 100 | Bluegrass plant response rating (bluegrass; Postemergence, 31 g ai/ha): 15 | Bluegrass plant response rating (bluegrass; Postemergence, 125 g ai/ha): 15 | Bluegrass plant response rating (bluegrass; Postemergence, 250 g ai/ha): 20 | Bluegrass plant response rating (bluegrass; postemergence, 62 g ai/ha): 15 | Plant response rating, Field Violet (field violet; 62 g ai/ha): 100 | Plant response rating, Field Violet (field violet; 125 g ai/ha): 100 | Plant response rating, Field Violet (field violet; 250 g ai/ha): 100 | Ryegrass, Italian plant response rating (ryegrass, Italian [1]; Postemergence, 31 g ai/ha): 10 | Ryegrass, Italian plant response rating (ryegrass, Italian [1]; Postemergence, 125 g ai/ha): 20 | Ryegrass, Italian plant response rating (ryegrass, Italian [1]; Postemergence, 250 g ai/ha): 45 | Ryegrass, Italian plant response rating (ryegrass, Italian [1]; postemergence, 62 g ai/ha): 10 | Oat, Wild plant response rating (oat, wild; Postemergence, 31 g ai/ha): 15 | Oat, Wild plant response rating (oat, wild; Postemergence, 125 g ai/ha): 20 | Oat, Wild plant response rating (oat, wild; Postemergence, 250 g ai/ha): 40 | Oat, Wild plant response rating (oat, wild; postemergence, 62 g ai/ha): 15 | Plant response rating, Ryegrass, Italian (ryegrass, Italian [2]; 62 g ai/ha): 55 | Plant response rating, Ryegrass, Italian (ryegrass, Italian [2]; 125 g ai/ha): 70 | Plant response rating, Ryegrass, Italian (ryegrass, Italian [2]; 250 g ai/ha): 90 | Plant response rating, Barley, Winter (barley, winter; 31 g ai/ha): 15 | Plant response rating, Barley, Winter (barley, winter; 62 g ai/ha): 35 | Plant response rating, Barley, Winter (barley, winter; 125 g ai/ha): 55 | Plant response rating, Barley, Winter (barley, winter; 250 g ai/ha): 65 | Plant response rating, Barley, Spring (barley, spring; 31 g ai/ha): 10 | Plant response rating, Barley, Spring (barley, spring; 62 g ai/ha): 40 | Plant response rating, Barley, Spring (barley, spring; 125 g ai/ha): 65 | Plant response rating, Barley, Spring (barley, spring; 250 g ai/ha): 80 | Plant response rating, Field Poppy (field poppy; 62 g ai/ha): 100 | Plant response rating, Field Poppy (field poppy; 125 g ai/ha): 100 | Plant response rating, Field Poppy (field poppy; 250 g ai/ha): 100 | Plant response rating, Pigweed (pigweed; 62 g ai/ha): 100 | Plant response rating, Pigweed (pigweed; 125 g ai/ha): 100 | Plant response rating, Pigweed (pigweed; 250 g ai/ha): 100 | Wheat, Spring plant response rating (wheat, spring; Postemergence, 31 g ai/ha): 15 | Wheat, Spring plant response rating (wheat, spring; Postemergence, 125 g ai/ha): 15 | Wheat, Spring plant response rating (wheat, spring; Postemergence, 250 g ai/ha): 20 | Wheat, Spring plant response rating (wheat, spring; postemergence, 62 g ai/ha): 15 | Wheat, Winter plant response rating (wheat, winter; Postemergence, 31 g ai/ha): 15 | Wheat, Winter plant response rating (wheat, winter; Postemergence, 125 g ai/ha): 20 | Wheat, Winter plant response rating (wheat, winter; Postemergence, 250 g ai/ha): 40 | Wheat, Winter plant response rating (wheat, winter; postemergence, 62 g ai/ha): 15 | Plant response rating, Canarygrass (canarygrass; 31 g ai/ha): 40 | Plant response rating, Canarygrass (canarygrass; 62 g ai/ha): 65 | Plant response rating, Canarygrass (canarygrass; 125 g ai/ha): 100 | Plant response rating, Canarygrass (canarygrass; 250 g ai/ha): 100 | Plant response rating, Lambsquarters (lambsquarters; 62 g ai/ha): 90 | Plant response rating, Lambsquarters (lambsquarters; 125 g ai/ha): 100 | Plant response rating, Lambsquarters (lambsquarters; 250 g ai/ha): 100 | Chickweed plant response rating (chickweed; Postemergence, 31 g ai/ha): 65 | Chickweed plant response rating (chickweed; Postemergence, 125 g ai/ha): 70 | Chickweed plant response rating (chickweed; Postemergence, 250 g ai/ha): 70 | Chickweed plant response rating (chickweed; postemergence, 62 g ai/ha): 65 | Kochia plant response rating (kochia; Postemergence, 31 g ai/ha): 70 | Kochia plant response rating (kochia; Postemergence, 125 g ai/ha): 80 | Kochia plant response rating (kochia; Postemergence, 250 g ai/ha): 85 | Kochia plant response rating (kochia; postemergence, 62 g ai/ha): 70 | Plant response rating, Radish, Wild (radish, wild; 62 g ai/ha): 100 | Plant response rating, Radish, Wild (radish, wild; 125 g ai/ha): 100 | Plant response rating, Radish, Wild (radish, wild; 250 g ai/ha): 100 | Plant response rating, Bromegrass, Downy (bromegrass, downy; 31 g ai/ha): 15 | Plant response rating, Bromegrass, Downy (bromegrass, downy; 62 g ai/ha): 25 | Plant response rating, Bromegrass, Downy (bromegrass, downy; 125 g ai/ha): 35 | Plant response rating, Bromegrass, Downy (bromegrass, downy; 250 g ai/ha): 80
